Source: the supplement of paper PMC13380429

Assays:
Conditions in all cases: 72 h
Caco-2 [1] = experiment: drug sensitivity score (DSS) for viability; higher = more toxic; extreme values may be limits of the assay
Vero E6 [2] = experiment: as above
Calu-3 [3] = experiment: as above
U2OS [4] = experiment: as above
HepG2 [5] = experiment: as above
Caco-2 [6] = experiment: relative viability EC50 (midpoint between 100% and the lowest measured viability); higher = less toxic
Vero E6 [7] = experiment: as above
Calu-3 [8] = experiment: as above
U2OS [9] = experiment: as above
HepG2 [10] = experiment: as above
Caco-2 [11] = experiment: cell viability relative to DMSO; higher = less toxic
Vero E6 [12] = experiment: as above
Calu-3 [13] = experiment: as above
U2OS [14] = experiment: as above
HepG2 [15] = experiment: as above

NCC(=O)N[C@@H](CCC(N)=O)C(=O)O [gly-gln]
drug sensitivity score (Caco-2 [1]): 0
drug sensitivity score (Vero E6 [2]): 0
drug sensitivity score (Calu-3 [3]): 0
drug sensitivity score (U2OS [4]): 0
drug sensitivity score (HepG2 [5]): 0
relative viability EC50 (Caco-2 [6]): > 10 µM
relative viability EC50 (Vero E6 [7]): > 10 µM
relative viability EC50 (Calu-3 [8]): > 10 µM
relative viability EC50 (U2OS [9]): > 10 µM
relative viability EC50 (HepG2 [10]): > 10 µM
cell viability (Caco-2 [11]; 1 nM): 95.5%
cell viability (Caco-2 [11]; 10 nM): 92.6%
cell viability (Caco-2 [11]; 100 nM): 92.9%
cell viability (Caco-2 [11]; 1000 nM): 102%
cell viability (Caco-2 [11]; 10000 nM): 97.7%
cell viability (Vero E6 [12]; 1 nM): 91.8%
cell viability (Vero E6 [12]; 10 nM): 101%
cell viability (Vero E6 [12]; 100 nM): 91.7%
cell viability (Vero E6 [12]; 1000 nM): 94.2%
cell viability (Vero E6 [12]; 10000 nM): 107%
cell viability (Calu-3 [13]; 1 nM): 95.9%
cell viability (Calu-3 [13]; 10 nM): 91.9%
cell viability (Calu-3 [13]; 100 nM): 92.7%
cell viability (Calu-3 [13]; 1000 nM): 99.2%
cell viability (Calu-3 [13]; 10000 nM): 109%
cell viability (U2OS [14]; 1 nM): 99.2%
cell viability (U2OS [14]; 10 nM): 95.4%
cell viability (U2OS [14]; 100 nM): 96.7%
cell viability (U2OS [14]; 1000 nM): 98.3%
cell viability (U2OS [14]; 10000 nM): 97.1%
cell viability (HepG2 [15]; 1 nM): 86.6%
cell viability (HepG2 [15]; 10 nM): 100%
cell viability (HepG2 [15]; 100 nM): 91.7%
cell viability (HepG2 [15]; 1000 nM): 106%
cell viability (HepG2 [15]; 10000 nM): 104%

COc1ccc([C@@H]2CC(=O)c3c(O)cc(O[C@@H]4O[C@H](CO[C@@H]5O[C@@H](C)[C@H](O)[C@@H](O)[C@H]5O)[C@@H](O)[C@H](O)[C@H]4O)cc3O2)cc1O [hesperidin]
drug sensitivity score (Caco-2 [1]): 0
drug sensitivity score (Vero E6 [2]): 0
drug sensitivity score (Calu-3 [3]): 0
drug sensitivity score (U2OS [4]): 0
drug sensitivity score (HepG2 [5]): 0.2
relative viability EC50 (Caco-2 [6]): > 10 µM
relative viability EC50 (Vero E6 [7]): > 10 µM
relative viability EC50 (Calu-3 [8]): > 10 µM
relative viability EC50 (U2OS [9]): > 10 µM
relative viability EC50 (HepG2 [10]): > 10 µM
cell viability (Caco-2 [11]; 1 nM): 98.3%
cell viability (Caco-2 [11]; 10 nM): 103%
cell viability (Caco-2 [11]; 100 nM): 97.5%
cell viability (Caco-2 [11]; 1000 nM): 88.1%
cell viability (Caco-2 [11]; 10000 nM): 98.9%
cell viability (Vero E6 [12]; 1 nM): 103%
cell viability (Vero E6 [12]; 10 nM): 102%
cell viability (Vero E6 [12]; 100 nM): 99%
cell viability (Vero E6 [12]; 1000 nM): 98.5%
cell viability (Vero E6 [12]; 10000 nM): 99.8%
cell viability (Calu-3 [13]; 1 nM): 89.1%
cell viability (Calu-3 [13]; 10 nM): 86.3%
cell viability (Calu-3 [13]; 100 nM): 91.6%
cell viability (Calu-3 [13]; 1000 nM): 97.9%
cell viability (Calu-3 [13]; 10000 nM): 101%
cell viability (U2OS [14]; 1 nM): 97.5%
cell viability (U2OS [14]; 10 nM): 97.9%
cell viability (U2OS [14]; 100 nM): 102%
cell viability (U2OS [14]; 1000 nM): 99.7%
cell viability (U2OS [14]; 10000 nM): 104%
cell viability (HepG2 [15]; 1 nM): 99%
cell viability (HepG2 [15]; 10 nM): 109%
cell viability (HepG2 [15]; 100 nM): 99.1%
cell viability (HepG2 [15]; 1000 nM): 103%
cell viability (HepG2 [15]; 10000 nM): 83.7%

CCCCCCc1ccc(O)cc1O [hexylresorcinol]
drug sensitivity score (Caco-2 [1]): 0
drug sensitivity score (Vero E6 [2]): 0
drug sensitivity score (Calu-3 [3]): 0
drug sensitivity score (U2OS [4]): 0
drug sensitivity score (HepG2 [5]): 0
relative viability EC50 (Caco-2 [6]): > 10 µM
relative viability EC50 (Vero E6 [7]): > 10 µM
relative viability EC50 (Calu-3 [8]): > 10 µM
relative viability EC50 (U2OS [9]): > 10 µM
relative viability EC50 (HepG2 [10]): > 10 µM
cell viability (Caco-2 [11]; 1 nM): 95.9%
cell viability (Caco-2 [11]; 10 nM): 98.5%
cell viability (Caco-2 [11]; 100 nM): 98.4%
cell viability (Caco-2 [11]; 1000 nM): 100%
cell viability (Caco-2 [11]; 10000 nM): 94.9%
cell viability (Vero E6 [12]; 1 nM): 102%
cell viability (Vero E6 [12]; 10 nM): 101%
cell viability (Vero E6 [12]; 100 nM): 106%
cell viability (Vero E6 [12]; 1000 nM): 103%
cell viability (Vero E6 [12]; 10000 nM): 96.7%
cell viability (Calu-3 [13]; 1 nM): 91%
cell viability (Calu-3 [13]; 10 nM): 109%
cell viability (Calu-3 [13]; 100 nM): 104%
cell viability (Calu-3 [13]; 1000 nM): 97.8%
cell viability (Calu-3 [13]; 10000 nM): 99.7%
cell viability (U2OS [14]; 1 nM): 98.3%
cell viability (U2OS [14]; 10 nM): 101%
cell viability (U2OS [14]; 100 nM): 97.5%
cell viability (U2OS [14]; 1000 nM): 104%
cell viability (U2OS [14]; 10000 nM): 99.9%
cell viability (HepG2 [15]; 1 nM): 105%
cell viability (HepG2 [15]; 10 nM): 98.7%
cell viability (HepG2 [15]; 100 nM): 107%
cell viability (HepG2 [15]; 1000 nM): 93.7%
cell viability (HepG2 [15]; 10000 nM): 94%

CC(=O)OCC(=O)[C@@]1(O)CC[C@H]2[C@@H]3CCC4=CC(=O)CC[C@]4(C)[C@H]3[C@@H](O)C[C@@]21C [hydrocortisone-acetate]
drug sensitivity score (Caco-2 [1]): 0
drug sensitivity score (Vero E6 [2]): 0
drug sensitivity score (Calu-3 [3]): 0
drug sensitivity score (U2OS [4]): 0
drug sensitivity score (HepG2 [5]): 0
relative viability EC50 (Caco-2 [6]): > 10 µM
relative viability EC50 (Vero E6 [7]): > 10 µM
relative viability EC50 (Calu-3 [8]): > 10 µM
relative viability EC50 (U2OS [9]): > 10 µM
relative viability EC50 (HepG2 [10]): > 10 µM
cell viability (Caco-2 [11]; 1 nM): 92.6%
cell viability (Caco-2 [11]; 10 nM): 94.4%
cell viability (Caco-2 [11]; 100 nM): 106%
cell viability (Caco-2 [11]; 1000 nM): 97.6%
cell viability (Caco-2 [11]; 10000 nM): 107%
cell viability (Vero E6 [12]; 1 nM): 95.7%
cell viability (Vero E6 [12]; 10 nM): 99.4%
cell viability (Vero E6 [12]; 100 nM): 96.2%
cell viability (Vero E6 [12]; 1000 nM): 95.4%
cell viability (Vero E6 [12]; 10000 nM): 101%
cell viability (Calu-3 [13]; 1 nM): 93.8%
cell viability (Calu-3 [13]; 10 nM): 102%
cell viability (Calu-3 [13]; 100 nM): 97.9%
cell viability (Calu-3 [13]; 1000 nM): 96.8%
cell viability (Calu-3 [13]; 10000 nM): 89.2%
cell viability (U2OS [14]; 1 nM): 94.6%
cell viability (U2OS [14]; 10 nM): 97%
cell viability (U2OS [14]; 100 nM): 93%
cell viability (U2OS [14]; 1000 nM): 97.7%
cell viability (U2OS [14]; 10000 nM): 98.6%
cell viability (HepG2 [15]; 1 nM): 101%
cell viability (HepG2 [15]; 10 nM): 105%
cell viability (HepG2 [15]; 100 nM): 105%
cell viability (HepG2 [15]; 1000 nM): 99.5%
cell viability (HepG2 [15]; 10000 nM): 103%

O=c1[nH]cnc2nc[nH]c12 [hypoxanthine]
drug sensitivity score (Caco-2 [1]): 0
drug sensitivity score (Vero E6 [2]): 0
drug sensitivity score (Calu-3 [3]): 0
drug sensitivity score (U2OS [4]): 0
drug sensitivity score (HepG2 [5]): 0
relative viability EC50 (Caco-2 [6]): > 10 µM
relative viability EC50 (Vero E6 [7]): > 10 µM
relative viability EC50 (Calu-3 [8]): > 10 µM
relative viability EC50 (U2OS [9]): > 10 µM
relative viability EC50 (HepG2 [10]): > 10 µM
cell viability (Caco-2 [11]; 1 nM): 101%
cell viability (Caco-2 [11]; 10 nM): 87%
cell viability (Caco-2 [11]; 100 nM): 102%
cell viability (Caco-2 [11]; 1000 nM): 103%
cell viability (Caco-2 [11]; 10000 nM): 112%
cell viability (Vero E6 [12]; 1 nM): 105%
cell viability (Vero E6 [12]; 10 nM): 105%
cell viability (Vero E6 [12]; 100 nM): 102%
cell viability (Vero E6 [12]; 1000 nM): 104%
cell viability (Vero E6 [12]; 10000 nM): 96.5%
cell viability (Calu-3 [13]; 1 nM): 98.1%
cell viability (Calu-3 [13]; 10 nM): 90.3%
cell viability (Calu-3 [13]; 100 nM): 102%
cell viability (Calu-3 [13]; 1000 nM): 95.4%
cell viability (Calu-3 [13]; 10000 nM): 102%
cell viability (U2OS [14]; 1 nM): 98%
cell viability (U2OS [14]; 10 nM): 97.8%
cell viability (U2OS [14]; 100 nM): 102%
cell viability (U2OS [14]; 1000 nM): 102%
cell viability (U2OS [14]; 10000 nM): 113%
cell viability (HepG2 [15]; 1 nM): 100%
cell viability (HepG2 [15]; 10 nM): 102%
cell viability (HepG2 [15]; 100 nM): 97.7%
cell viability (HepG2 [15]; 1000 nM): 95.5%
cell viability (HepG2 [15]; 10000 nM): 94%

OC[C@H]1O[C@@H](c2ccc(F)c(Cc3cc4ccccc4s3)c2)[C@H](O)[C@@H](O)[C@@H]1O [ipragliflozin-L-proline]
drug sensitivity score (Caco-2 [1]): 0
drug sensitivity score (Vero E6 [2]): 0
drug sensitivity score (Calu-3 [3]): 0
drug sensitivity score (U2OS [4]): 0
drug sensitivity score (HepG2 [5]): 0
relative viability EC50 (Caco-2 [6]): > 10 µM
relative viability EC50 (Vero E6 [7]): > 10 µM
relative viability EC50 (Calu-3 [8]): > 10 µM
relative viability EC50 (U2OS [9]): > 10 µM
relative viability EC50 (HepG2 [10]): > 10 µM
cell viability (Caco-2 [11]; 1 nM): 108%
cell viability (Caco-2 [11]; 10 nM): 99.8%
cell viability (Caco-2 [11]; 100 nM): 100%
cell viability (Caco-2 [11]; 1000 nM): 101%
cell viability (Caco-2 [11]; 10000 nM): 100%
cell viability (Vero E6 [12]; 1 nM): 110%
cell viability (Vero E6 [12]; 10 nM): 104%
cell viability (Vero E6 [12]; 100 nM): 105%
cell viability (Vero E6 [12]; 1000 nM): 99.4%
cell viability (Vero E6 [12]; 10000 nM): 103%
cell viability (Calu-3 [13]; 1 nM): 92.4%
cell viability (Calu-3 [13]; 10 nM): 108%
cell viability (Calu-3 [13]; 100 nM): 98%
cell viability (Calu-3 [13]; 1000 nM): 110%
cell viability (Calu-3 [13]; 10000 nM): 100%
cell viability (U2OS [14]; 1 nM): 99.2%
cell viability (U2OS [14]; 10 nM): 98.7%
cell viability (U2OS [14]; 100 nM): 99.4%
cell viability (U2OS [14]; 1000 nM): 104%
cell viability (U2OS [14]; 10000 nM): 99%
cell viability (HepG2 [15]; 1 nM): 108%
cell viability (HepG2 [15]; 10 nM): 101%
cell viability (HepG2 [15]; 100 nM): 105%
cell viability (HepG2 [15]; 1000 nM): 96.3%
cell viability (HepG2 [15]; 10000 nM): 111%
